Among the data in ChEMBL document CHEMBL3868618, “Synthesis and biological evaluation of chalcone derivatives containing aminoguanidine or acylhydrazone moieties” (Bioorg Med Chem Lett, 2016) are MIC and inhibition in vivo values, retold here.

As usually defined, the MIC is the lowest concentration that inhibits growth of the organism. What is called inhibition in vivo is the drop in the measured response relative to a control, in per cent.

Values after ≈ are worked out from the molar mass of the structure shown.

Assay [1] deals with Staphylococcus aureus. The experiment in a line: Antibacterial activity against Staphylococcus aureus 209 measured after 24 hrs by two-fold serial dilution method. In kind it is functional. The conditions noted are these: Staphylococcus aureus, 209, 24 h.
Another assay concerns Streptococcus mutans. The experiment in a line: Antibacterial activity against Streptococcus mutans 3065 measured after 24 hrs by two-fold serial dilution method. In kind it is functional. The note with it: Streptococcus mutans, 3065, 24 h.
A further assay concerns Pseudomonas aeruginosa. The experiment in a line: Antibacterial activity against Pseudomonas aeruginosa 2742 measured after 24 hrs by two-fold serial dilution method. In kind it is functional. The conditions noted are these: Pseudomonas aeruginosa, 2742, 24 h.
In the next assay the test system is Candida albicans. The experiment in a line: Antifungal activity against Candida albicans 7535 measured after 24 hrs by two-fold serial dilution method. In kind it is functional. The conditions noted are these: Candida albicans, 7535, 24 h.
Another assay concerns Salmonella typhimurium. The experiment in a line: Antibacterial activity against Salmonella typhimurium 1926 measured after 24 hrs by two-fold serial dilution method. The note with it: Salmonella enterica, 1926, 24 h. In kind it is functional, Salmonella enterica subsp. enterica serovar Typhimurium.
Assay [2] deals with Staphylococcus aureus. The experiment in a line: Antibacterial activity against Staphylococcus aureus 4220 measured after 24 hrs by two-fold serial dilution method. The note with it: Staphylococcus aureus, 4220, 24 h. In kind it is functional.
Assay [3] has as its system Escherichia coli. The experiment in a line: Antibacterial activity against Escherichia coli 1356 measured after 24 hrs by two-fold serial dilution method. The note with it: Escherichia coli, 1356, 24 h. In kind it is functional.
Another assay deals with Mus musculus. The experiment in a line: Antiinflammatory activity in mouse assessed as inhibition of xylene-induced ear edema at 100 mg/kg, ip administered 30 mins before xylene challenge measured after 30 mins relative to DMSO-control. In kind it is functional.
For assay [4], the system named is Staphylococcus aureus. The experiment in a line: Antibacterial activity against quinolone-resistant Staphylococcus aureus 3505 measured after 24 hrs by two-fold serial dilution method. In kind it is functional. The conditions noted are these: Staphylococcus aureus, 3505, 24 h.
The subject of assay [5] is Staphylococcus aureus. The experiment in a line: Antibacterial activity against quinolone-resistant Staphylococcus aureus 3519 measured after 24 hrs by two-fold serial dilution method. The conditions noted are these: Staphylococcus aureus, 3519, 24 h. In kind it is functional.
The subject of assay [6] is Staphylococcus aureus. The experiment in a line: Antibacterial activity against methicillin-resistant Staphylococcus aureus 3506 measured after 24 hrs by two-fold serial dilution method. In kind it is functional. The conditions noted are these: Staphylococcus aureus, 3506, 24 h.
Assay [7] deals with Escherichia coli. The experiment in a line: Antibacterial activity against Escherichia coli 1924 measured after 24 hrs by two-fold serial dilution method. In kind it is functional. The note with it: Escherichia coli, 1924, 24 h.
Assay [8] relates to Staphylococcus aureus. The experiment in a line: Antibacterial activity against methicillin-resistant Staphylococcus aureus 3167 measured after 24 hrs by two-fold serial dilution method. In kind it is functional. The note with it: Staphylococcus aureus, 3167, 24 h.
Assay [9] deals with Staphylococcus aureus. The experiment in a line: Antibacterial activity against Staphylococcus aureus 503 measured after 24 hrs by two-fold serial dilution method. In kind it is functional. The conditions noted are these: Staphylococcus aureus, 503, 24 h.

With `N=C(N)N/N=C/c1ccc(/C=C/C(=O)c2ccc(Br)cc2)cc1`, the MIC in the assay on Staphylococcus aureus [1] is 4 µg/mL (≈ 10.8 µM); in the assay on Streptococcus mutans it was 4 µg/mL (≈ 10.8 µM); with Pseudomonas aeruginosa, 2 µg/mL (≈ 5.39 µM); against Candida albicans it was 2 µg/mL (≈ 5.39 µM); against Salmonella typhimurium it was 2 µg/mL (≈ 5.39 µM); with Staphylococcus aureus [2], 2 µg/mL (≈ 5.39 µM). Besides, the MIC with Escherichia coli [3] stood at 32 µg/mL (≈ 86.2 µM); in the assay on Staphylococcus aureus [4], 4 µg/mL (≈ 10.8 µM); in the assay with Staphylococcus aureus [5], 16 µg/mL (≈ 43.1 µM); against Staphylococcus aureus [6] it was 2 µg/mL (≈ 5.39 µM); against Escherichia coli [7], 2 µg/mL (≈ 5.39 µM); against Staphylococcus aureus [8], 8 µg/mL (≈ 21.5 µM). This molecule displayed an MIC with Staphylococcus aureus [9] of 4 µg/mL (≈ 10.8 µM). Moreover, the inhibition in vivo at 100 mg/kg in the assay with Mus musculus was 68.9%.
Take `O=C(N/N=C/c1ccc(/C=C/C(=O)c2ccccc2Cl)cc1)c1ccccc1`: the MIC in the assay on Staphylococcus aureus [1] was 64 µg/mL (≈ 165 µM); in the assay with Streptococcus mutans, > 64 µg/mL; with Pseudomonas aeruginosa it was > 64 µg/mL; in the assay on Candida albicans, > 64 µg/mL; against Salmonella typhimurium, > 64 µg/mL; against Staphylococcus aureus [2] it was > 64 µg/mL. Also, the minimum inhibitory concentration (MIC) is > 64 µg/mL with Escherichia coli [3]; 64 µg/mL (≈ 165 µM) against Staphylococcus aureus [4]; 64 µg/mL (≈ 165 µM) in the assay with Staphylococcus aureus [5]; 64 µg/mL (≈ 165 µM) against Staphylococcus aureus [6]; > 64 µg/mL against Escherichia coli [7]; 64 µg/mL (≈ 165 µM) against Staphylococcus aureus [8]. For the same molecule, inhibition of growth against Staphylococcus aureus [9] (MIC) required 64 µg/mL (≈ 165 µM).
Take `Cc1ccc(C(=O)/C=C/c2ccc(/C=N/NC(=N)N)cc2)c(C)c1`: the MIC against Staphylococcus aureus [1] is 8 µg/mL (≈ 25 µM); with Streptococcus mutans, 8 µg/mL (≈ 25 µM); in the assay on Pseudomonas aeruginosa, 4 µg/mL (≈ 12.5 µM); with Candida albicans it was 8 µg/mL (≈ 25 µM); against Salmonella typhimurium, 8 µg/mL (≈ 25 µM); against Staphylococcus aureus [2], 4 µg/mL (≈ 12.5 µM). The MIC was 8 µg/mL (≈ 25 µM) against Escherichia coli [3]; 8 µg/mL (≈ 25 µM) with Staphylococcus aureus [4]; 8 µg/mL (≈ 25 µM) against Staphylococcus aureus [5]; 4 µg/mL (≈ 12.5 µM) against Staphylococcus aureus [6]; 8 µg/mL (≈ 25 µM) against Escherichia coli [7]; 8 µg/mL (≈ 25 µM) against Staphylococcus aureus [8]. Also, the MIC in the assay with Staphylococcus aureus [9] amounted to 8 µg/mL (≈ 25 µM). Further, the inhibition in vivo at 100 mg/kg with Mus musculus amounted to 64.2%.
In the case of `N=C(N)N/N=C/c1ccc(/C=C/C(=O)c2ccccc2F)cc1`, the MIC with Staphylococcus aureus [1] came out at 8 µg/mL (≈ 25.8 µM); with Streptococcus mutans, 8 µg/mL (≈ 25.8 µM); with Pseudomonas aeruginosa, 4 µg/mL (≈ 12.9 µM); with Candida albicans, 8 µg/mL (≈ 25.8 µM); with Salmonella typhimurium, 4 µg/mL (≈ 12.9 µM); in the assay on Staphylococcus aureus [2] it was 4 µg/mL (≈ 12.9 µM). In addition, the MIC against Escherichia coli [3] worked out at 16 µg/mL (≈ 51.6 µM); against Staphylococcus aureus [4], 8 µg/mL (≈ 25.8 µM); with Staphylococcus aureus [5], 8 µg/mL (≈ 25.8 µM); against Staphylococcus aureus [6] it was 4 µg/mL (≈ 12.9 µM); in the assay on Escherichia coli [7], 8 µg/mL (≈ 25.8 µM); with Staphylococcus aureus [8] it was 8 µg/mL (≈ 25.8 µM). In the assay with Staphylococcus aureus [9], this molecule displayed a minimal inhibitory concentration (MIC) of 8 µg/mL (≈ 25.8 µM). The inhibition in vivo at 100 mg/kg in the assay on Mus musculus was determined as 91.7%.
Regarding `O=C(N/N=C/c1ccc(/C=C/C(=O)c2ccccc2F)cc1)c1ccccc1`, the MIC against Staphylococcus aureus [1], against Streptococcus mutans, against Pseudomonas aeruginosa, with Candida albicans, against Salmonella typhimurium and against Staphylococcus aureus [2] was > 64 µg/mL in each case. The MIC in the assay with Escherichia coli [3] is > 64 µg/mL; in the assay on Staphylococcus aureus [4], > 64 µg/mL; against Staphylococcus aureus [5], > 64 µg/mL; against Staphylococcus aureus [6] it was 64 µg/mL (≈ 172 µM); against Escherichia coli [7], > 64 µg/mL; against Staphylococcus aureus [8], 64 µg/mL (≈ 172 µM). The MIC against Staphylococcus aureus [9] was > 64 µg/mL.
For `O=C(/C=C/c1ccc(/C=N/NC(=O)c2cccc(Cl)c2)cc1)c1ccc(Cl)cc1`, the MIC in the assay with Staphylococcus aureus [1] was 32 µg/mL (≈ 75.6 µM); in the assay on Streptococcus mutans, > 64 µg/mL; against Pseudomonas aeruginosa it was > 64 µg/mL; in the assay on Candida albicans it was > 64 µg/mL; with Salmonella typhimurium, > 64 µg/mL; against Staphylococcus aureus [2], 32 µg/mL (≈ 75.6 µM). Moreover, the MIC against Escherichia coli [3], with Staphylococcus aureus [4], in the assay with Staphylococcus aureus [5], against Staphylococcus aureus [6], against Escherichia coli [7] and in the assay on Staphylococcus aureus [8] was 32 µg/mL (≈ 75.6 µM) each time. Besides, 32 µg/mL (≈ 75.6 µM) was the least that counted as inhibitory in the assay on Staphylococcus aureus [9] (MIC).
As to `N=C(N)N/N=C/c1ccc(/C=C/C(=O)c2ccccc2Br)cc1`, the MIC came out at 8 µg/mL (≈ 21.5 µM) with Staphylococcus aureus [1]; 8 µg/mL (≈ 21.5 µM) with Streptococcus mutans; 8 µg/mL (≈ 21.5 µM) with Pseudomonas aeruginosa; 8 µg/mL (≈ 21.5 µM) against Candida albicans; 4 µg/mL (≈ 10.8 µM) with Salmonella typhimurium; 4 µg/mL (≈ 10.8 µM) against Staphylococcus aureus [2]. Also, the MIC against Escherichia coli [3] was 16 µg/mL (≈ 43.1 µM); against Staphylococcus aureus [4], 8 µg/mL (≈ 21.5 µM); in the assay on Staphylococcus aureus [5], 16 µg/mL (≈ 43.1 µM); with Staphylococcus aureus [6] it was 8 µg/mL (≈ 21.5 µM); in the assay on Escherichia coli [7] it was 8 µg/mL (≈ 21.5 µM); against Staphylococcus aureus [8], 8 µg/mL (≈ 21.5 µM). In addition, in the assay on Staphylococcus aureus [9], it took 8 µg/mL (≈ 21.5 µM) to inhibit growth (MIC). For the same molecule, the inhibition in vivo at 100 mg/kg in the assay on Mus musculus worked out at 78.3%.
As to `O=C(N/N=C/c1ccc(/C=C/C(=O)c2ccccc2Br)cc1)c1ccccc1`, the MIC in the assay on Staphylococcus aureus [1], against Streptococcus mutans, against Pseudomonas aeruginosa, in the assay with Candida albicans, against Salmonella typhimurium and against Staphylococcus aureus [2] was > 64 µg/mL each time. The MIC against Escherichia coli [3], in the assay on Staphylococcus aureus [4], with Staphylococcus aureus [5], in the assay with Staphylococcus aureus [6], against Escherichia coli [7] and in the assay with Staphylococcus aureus [8] was > 64 µg/mL in each case. For the same molecule, the MIC in the assay on Staphylococcus aureus [9] is > 64 µg/mL.
For `N=C(N)N/N=C/c1ccc(/C=C/C(=O)c2ccccc2Cl)cc1`, the MIC against Staphylococcus aureus [1], in the assay with Streptococcus mutans, in the assay with Pseudomonas aeruginosa, against Candida albicans, against Salmonella typhimurium and against Staphylococcus aureus [2] was 8 µg/mL (≈ 24.5 µM) in each case. Also, the MIC with Escherichia coli [3] worked out at 16 µg/mL (≈ 49 µM); in the assay on Staphylococcus aureus [4] it was 8 µg/mL (≈ 24.5 µM); with Staphylococcus aureus [5], 16 µg/mL (≈ 49 µM); in the assay on Staphylococcus aureus [6] it was 8 µg/mL (≈ 24.5 µM); in the assay on Escherichia coli [7] it was 8 µg/mL (≈ 24.5 µM); against Staphylococcus aureus [8] it was 8 µg/mL (≈ 24.5 µM). Besides, in the assay with Staphylococcus aureus [9], inhibition of growth (MIC) required 8 µg/mL (≈ 24.5 µM). Besides, the inhibition in vivo at 100 mg/kg with Mus musculus was 84.1%.
